From PubChem BioAssay AID324 (DTP/NCI, 2004)
Values joined by “and” are separate entries in the source; they are usually repeats but may differ in a detail not shown here. Equal entries are not always repeated. Toxic doses and inconclusive results are not listed.

Test system: CD2F1 mice, AMSA-resistant P388 leukemia ip, median survival T/C
Experiment: NCI In Vivo Anticancer Drug Screen. Data for tumor model P388 Leukemia resistant to AMSA; NSC 249992 (intraperitoneal) in CD2F1 (CDF1) mice
Details: endpoint: median survival time, higher = longer survival
Description: The antitumor activity of compounds was measured in mice bearing transplantable tumors. Survival or tumor size were measured and the results are expressed as the measurement made in the treated group (T) divided by the measurement made in the vehicle treated control group (C). The tumor model used in this assay is P388 Leukemia resistant to AMSA; NSC 249992 (intraperitoneal) in CD2F1 (CDF1) mice

[1] = dose: 1.94 mg/kg/injection, schedule: Q04DX003 (ip), vehicle: water
[2] = dose: 3.24 mg/kg/injection, schedule: Q04DX003 (ip), vehicle: water
[3] = dose: 5.4 mg/kg/injection, schedule: Q04DX003 (ip), vehicle: water
[4] = dose: 9.0 mg/kg/injection, schedule: Q04DX003 (ip), vehicle: water
[5] = dose: 15.0 mg/kg/injection, schedule: Q04DX003 (ip), vehicle: water

SMILES: COc1cc([C@@H]2c3cc4c(cc3[C@@H](OC3OC5CO[C@@H](c6cccs6)OC5C(O)C3O)[C@H]3COC(=O)[C@H]23)OCO4)cc(OC)c1O (stereo partly specified)
- T/C (dose: 25.0 mg/kg/injection, schedule: Q04DX003 (ip), vehicle: clinical formulation): 90 % of control

SMILES: NC(=O)c1csc(C2OC(CO)C(O)C2O)n1 (stereo unspecified)
- T/C (dose: 330.0 mg/kg/injection, schedule: Q01DX009 (ip), vehicle: water): 188 % of control
- T/C (dose: 500.0 mg/kg/injection, schedule: Q01DX009 (ip), vehicle: water): 88 % of control

SMILES: CCCCC(=O)N(c1ccc(Nc2c3ccccc3nc3cc([N+](=O)[O-])ccc23)cc1)S(C)(=O)=O
- T/C (dose: 10.8 mg/kg/injection, schedule: Q04DX003 (ip), vehicle: water): 100 % of control
- T/C (dose: 18.0 mg/kg/injection, schedule: Q04DX003 (ip), vehicle: water): 96 % of control
- T/C (dose: 30.0 mg/kg/injection, schedule: Q04DX003 (ip), vehicle: water): 95 % of control
- T/C (dose: 50.0 mg/kg/injection, schedule: Q04DX003 (ip), vehicle: water): 99 % of control
- T/C (dose: 83.3 mg/kg/injection, schedule: Q04DX003 (ip), vehicle: water): 91 % of control

SMILES: COc1c(O)c2c(c3cc(C(=O)N4CCc5c4c(O)c(OC)c4[nH]c(C(=O)N6CC7CC78C6=CC(=O)c6[nH]cc(C)c68)cc54)[nH]c13)CCN2C(N)=O (stereo unspecified)
- T/C (dose: 0.04 mg/kg/injection, schedule: Q01DX001 (ip), vehicle: DMSO): 118 % of control
- T/C (dose: 0.06 mg/kg/injection, schedule: Q01DX001 (ip), vehicle: DMSO): 123 % of control
- T/C (dose: 0.18 mg/kg/injection, schedule: Q01DX001 (ip), vehicle: DMSO): 109 % of control

SMILES: C(=N/NC1=NCCN1)/c1c2ccccc2c(/C=N\NC2=NCCN2)c2ccccc12
- T/C (dose: 5.18 mg/kg/injection, schedule: Q04DX002 (ip), vehicle: saline): 121 % of control
- T/C (dose: 14.4 mg/kg/injection, schedule: Q04DX002 (ip), vehicle: saline): 123 % of control
- T/C (dose: 40.0 mg/kg/injection, schedule: Q04DX002 (ip), vehicle: saline): 123 % of control

SMILES: COc1cccc2c1C(=O)c1c(O)c3c(c(O)c1C2=O)C[C@@](O)(C(C)=O)C[C@@H]3OC1CC(N(C)C)C(O)C(C)O1 (stereo partly specified)
- T/C (dose: 3.6 mg/kg/injection, schedule: Q04DX003 (ip), vehicle: water): 150 % of control
- T/C (dose: 6.0 mg/kg/injection, schedule: Q04DX003 (ip), vehicle: water): 168 % of control
- T/C (dose: 10.0 mg/kg/injection, schedule: Q04DX003 (ip), vehicle: water): 166 % of control
- T/C (dose: 16.7 mg/kg/injection, schedule: Q04DX003 (ip), vehicle: water): 107 % of control

SMILES: O=C1c2c(O)ccc(O)c2C(=O)c2c(NCCNCCO)ccc(NCCNCCO)c21
- T/C (dose: 1.3 mg/kg/injection, schedule: Q04DX002 (ip), vehicle: water): 110 % of control
- T/C (dose: 3.6 mg/kg/injection, schedule: Q04DX003 (ip), vehicle: saline): 157 % of control
- T/C (dose: 6.0 mg/kg/injection, schedule: Q04DX002 (ip), vehicle: water): 96 % of control
- T/C (dose: 6.0 mg/kg/injection, schedule: Q04DX003 (ip), vehicle: saline): 96 % of control and 123 % of control
- T/C (dose: 10.0 mg/kg/injection, schedule: Q04DX002 (ip), vehicle: water): 89 % of control

SMILES: NCCCCS(=O)(=O)Nc1ccc(Nc2c3ccccc3nc3cc([N+](=O)[O-])ccc23)cc1
- T/C (dose: 38.9 mg/kg/injection, schedule: Q04DX003 (ip), vehicle: water): 93 % of control
- T/C (dose: 64.8 mg/kg/injection, schedule: Q04DX003 (ip), vehicle: water): 93 % of control
- T/C (dose: 108.0 mg/kg/injection, schedule: Q04DX003 (ip), vehicle: water): 95 % of control

SMILES: CCN(CC)CCNc1ccc(C)c2sc3ccccc3c(=O)c12
- T/C (dose: 16.2 mg/kg/injection, schedule: Q01DX005 (ip), vehicle: saline): 101 % of control
- T/C (dose: 19.4 mg/kg/injection, schedule: Q01DX005 (ip), vehicle: water): 92 % of control
- T/C (dose: 27.0 mg/kg/injection, schedule: Q01DX005 (ip), vehicle: saline): 101 % of control
- T/C (dose: 45.0 mg/kg/injection, schedule: Q01DX005 (ip), vehicle: saline): 99 % of control
- T/C (dose: 54.0 mg/kg/injection, schedule: Q01DX005 (ip), vehicle: water): 90 % of control
- T/C (dose: 75.0 mg/kg/injection, schedule: Q01DX005 (ip), vehicle: saline): 94 % of control
- T/C (dose: 90.0 mg/kg/injection, schedule: Q01DX005 (ip), vehicle: water): 89 % of control
- T/C (dose: 125.0 mg/kg/injection, schedule: Q01DX005 (ip), vehicle: saline): 90 % of control

SMILES: CCCCCCCC(=O)OCC(=O)[C@]1(O)Cc2c(O)c3c(c(O)c2[C@@H](OC2CC(N)C(O)C(C)O2)C1)C(=O)c1c(OC)cccc1C3=O (stereo partly specified)
- T/C (dose: 13.3 mg/kg/injection, schedule: Q04DX003 (ip), vehicle: water): 102 % of control

SMILES: O=C1c2ccccc2C(=O)c2c(NCCNCCO)ccc(NCCNCCO)c21
- T/C (dose: 13.0 mg/kg/injection, schedule: Q04DX003 (ip), vehicle: saline): 103 % of control
- T/C (dose: 21.6 mg/kg/injection, schedule: Q04DX003 (ip), vehicle: saline): 103 % of control
- T/C (dose: 36.0 mg/kg/injection, schedule: Q04DX003 (ip), vehicle: saline): 103 % of control
- T/C (dose: 60.0 mg/kg/injection, schedule: Q04DX003 (ip), vehicle: saline): 108 % of control
- T/C (dose: 100.0 mg/kg/injection, schedule: Q04DX003 (ip), vehicle: saline): 113 % of control

SMILES: COC(=O)[C@@H]1c2cc3c(c(O)c2[C@@H](OC2OC(C)C(OC)C(C)(OC)C2OC)C[C@]1(C)O)C(=O)c1c(O)cc2c(c1C3=O)O[C@H]1O[C@]2(C)[C@H](O)[C@@H](N(C)C)[C@@H]1O (stereo partly specified)
- T/C (dose: 0.43 mg/kg/injection, schedule: Q04DX003 (ip), vehicle: water): 108 % of control
- T/C (dose: 0.52 mg/kg/injection, schedule: Q04DX003 (ip), vehicle: clinical formulation): 107 % of control
- T/C (dose: 0.72 mg/kg/injection, schedule: Q04DX003 (ip), vehicle: water): 113 % of control
- T/C (dose: 0.86 mg/kg/injection, schedule: Q04DX003 (ip), vehicle: clinical formulation): 114 % of control
- T/C (dose: 1.2 mg/kg/injection, schedule: Q04DX003 (ip), vehicle: water): 107 % of control
- T/C (dose: 1.44 mg/kg/injection, schedule: Q04DX003 (ip), vehicle: clinical formulation): 112 % of control
- T/C (dose: 2.0 mg/kg/injection, schedule: Q04DX003 (ip), vehicle: water): 118 % of control
- T/C (dose: 2.4 mg/kg/injection, schedule: Q04DX003 (ip), vehicle: clinical formulation): 110 % of control
- T/C (dose: 3.33 mg/kg/injection, schedule: Q04DX003 (ip), vehicle: water): 97 % of control

SMILES: CCC1(O)CC2CN(CCc3c([nH]c4ccccc34)C(C(=O)OC)(c3cc4c(cc3OC)N(C)C3C(O)(C(N)=O)C(O)C5(CC)C=CCN6CCC43C65)C2)C1 (stereo unspecified) (tested in a mixture with another compound)
- T/C (dose: 0.5 mg/kg/injection, schedule: Q04DX003 (ip), vehicle: clinical formulation): 150 % of control
- T/C (dose: 0.83 mg/kg/injection, schedule: Q04DX003 (ip), vehicle: clinical formulation): 162 % of control

SMILES: COc1cc([C@@H]2c3cc4c(cc3[C@@H](OC3OC5COC(C)OC5C(O)C3O)[C@H]3COC(=O)[C@H]23)OCO4)cc(OC)c1O (stereo partly specified)
- T/C (dose: 6.24 mg/kg/injection, schedule: Q04DX003 (ip), vehicle: water): 124 % of control
- T/C (dose: 17.3 mg/kg/injection, schedule: Q04DX003 (ip), vehicle: water): 118 % of control
- T/C (dose: 18.0 mg/kg/injection, schedule: Q04DX003 (ip), vehicle: Klucel (hydroxypropylcellulose) (HPC)): 103 % of control
- T/C (dose: 27.0 mg/kg/injection, schedule: Q04DX003 (ip), vehicle: Klucel (hydroxypropylcellulose) (HPC)): 91 % of control
- T/C (dose: 28.8 mg/kg/injection, schedule: Q04DX003 (ip), vehicle: clinical formulation): 167 % of control
- T/C (dose: 28.8 mg/kg/injection, schedule: Q04DX003 (ip), vehicle: water): 162 % of control
- T/C (dose: 48.0 mg/kg/injection, schedule: Q04DX003 (ip), vehicle: water): 108 % of control
- T/C (dose: 60.0 mg/kg/injection, schedule: Q04DX003 (ip), vehicle: Klucel (hydroxypropylcellulose) (HPC)): 87 % of control

SMILES: COc1cccc2c1C(=O)c1c(O)c3c(c(O)c1C2=O)C[C@@](O)(/C(C)=N/NC(=O)c1ccccc1)C[C@@H]3OC1CC(N)C(O)C(C)O1 (stereo partly specified)
- T/C [1]: 109 % of control
- T/C [2]: 117 % of control
- T/C [3]: 123 % of control
- T/C [4]: 123 % of control
- T/C [5]: 115 % of control

SMILES: COc1cccc2c1C(=N)c1c(O)c3c(c(O)c1C2=O)C[C@@](O)(C(C)=O)C[C@@H]3OC1CC(N)C(O)C(C)O1 (stereo partly specified)
- T/C [1]: 98 % of control
- T/C [2]: 98 % of control
- T/C [3]: 97 % of control
- T/C [4]: 100 % of control
- T/C [5]: 100 % of control

SMILES: COC(=O)C[C@](O)(CCCC(C)(C)O)C(=O)O[C@@H]1C(OC)=C[C@]23CCCN2CCc2cc4c(cc2[C@H]13)OCO4
- T/C (dose: 1.8 mg/kg/injection, schedule: Q04DX003 (ip), vehicle: saline + alcohol): 153 % of control
- T/C (dose: 3.0 mg/kg/injection, schedule: Q04DX003 (ip), vehicle: saline + alcohol): 163 % of control
